In ChEMBL document CHEMBL4680302, “Biologic-like In Vivo Efficacy with Small Molecule Inhibitors of TNFα Identified Using Scaffold Hopping and Structure-Based Drug Design Approaches” (J Med Chem, 2020):
In brackets after ≈: the same amount, converted by molar mass. Activity calls are given as the source filed them. No cut-off for these calls is given here.

How the values were obtained:
[1] = Drug exposure in TNFalpha-induced C57BL/6J mouse at 25 mg/kg, po pretreated with compound prior to 1 hr of TNFalpha challenge and measured at 3 hrs post dose; type: ADME, organism-based; settings: in vivo, read-out: Drug uptake
Mus musculus [2] = assay: Antiarthritic activity against anticollagen antibody-induced arthritis BALB/c mouse model assessed as reduction in LPS-induced cells expressing B220 receptor administered orally twice daily followed by LPS stimulation after 6 hrs measured on day 12 by RT-PCR analysis; type: functional, organism-based; settings: dose 2-10 mg/kg, time 12.0 day
[3] = Protein binding in rat assessed as unbound fraction; type: ADME
Mus musculus [4] = assay: Antiarthritic activity against anticollagen antibody-induced arthritis BALB/c mouse model assessed as reduction in LPS-induced CXCL12 levels administered orally twice daily followed by LPS stimulation after 6 hrs measured on day 12 by RT-PCR analysis; type: functional, organism-based; settings: dose 2-10 mg/kg, time 12.0 day
Mus musculus [5] = assay: Antiinflammatory activity in TNFalpha-induced C57BL/6J mouse assessed as inhibition of serum IL-6 levels at 5 to 25 mg/kg, po pretreated with compound prior to 1 hr of TNFalpha challenge and measured 2 hrs post TBFalpha challenge by ELISA; type: functional, organism-based; settings: dose 5-25 mg/kg, time 3.0 hrs
[6] = Solubility of compound; type: physicochemical
Mus musculus [7] = assay: Antiarthritic activity against anticollagen antibody-induced arthritis BALB/c mouse model assessed as reduction in LPS-induced MCP-1 levels administered orally twice daily followed by LPS stimulation after 6 hrs measured on day 12 by RT-PCR analysis; type: functional, organism-based; settings: dose 2-10 mg/kg, time 12.0 day
[8] = Volume of distribution at steady state in mouse at 0.5 mg/kg, iv; type: ADME, organism-based; settings: in vivo, read-out: Vdss
CD40 ligand = biological target: T1, CD40 ligand (Homo sapiens, UniProt P29965); assay: Inhibition of CD40L (unknown origin)
T1 sequence (P29965 whole entry): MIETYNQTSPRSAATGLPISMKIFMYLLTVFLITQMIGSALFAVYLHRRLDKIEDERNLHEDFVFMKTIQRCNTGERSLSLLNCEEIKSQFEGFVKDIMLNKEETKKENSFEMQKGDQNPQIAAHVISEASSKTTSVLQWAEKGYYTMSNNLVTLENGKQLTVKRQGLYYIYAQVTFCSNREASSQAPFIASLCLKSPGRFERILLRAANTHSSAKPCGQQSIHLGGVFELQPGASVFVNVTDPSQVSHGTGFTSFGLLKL

[9] = Selectivity ratio of drug exposure in anticollagen antibody-induced arthritis BALB/c mouse model at 2 mg/kg, po BID for 12 days to IC50 for inhibition of human TNFalpha expressed in HEK-Blue-CD40L cells assessed as inhibition of NFkappaB activation by quanti-blue based SEAP assay
[10] = Terminal drug exposure in anticollagen antibody-induced arthritis BALB/c mouse model at 10 mg/kg, po BID followed by LPS stimulation after 6 hrs measured on day 12; type: ADME, organism-based; settings: in vivo, time 12 day, read-out: Drug uptake
Mus musculus [11] = assay: Antiarthritic activity against anticollagen antibody-induced arthritis BALB/c mouse model assessed as reduction in LPS-induced IL-6 production administered orally twice daily followed by LPS stimulation after 6 hrs measured on day 12 by RT-PCR analysis; type: functional, organism-based; settings: dose 2-10 mg/kg, time 12.0 day
Cytochrome P450 2D6 = Cytochrome P450 2D6 (Homo sapiens, UniProt P10635); assay: Inhibition of recombinant CYP2D6 (unknown origin); type: ADME
Mus musculus [12] = assay: Antiarthritic activity against anticollagen antibody-induced arthritis BALB/c mouse model assessed as reduction in LPS-induced TNFalpha production administered orally twice daily followed by LPS stimulation after 6 hrs measured on day 12 by RT-PCR analysis; type: functional, organism-based; settings: dose 2-10 mg/kg, time 12.0 day
[13] = biological target: T2, Tumor necrosis factor receptor superfamily member 1A (Homo sapiens) (UniProt P19438); assay: Binding affinity to TNFR1 (unknown origin) assessed as sedimentation coefficient (S) value at 25 uM in presence of human TNFalpha by ultracentrifugation analysis (reference value: 2.2)
T2 sequence (whole entry): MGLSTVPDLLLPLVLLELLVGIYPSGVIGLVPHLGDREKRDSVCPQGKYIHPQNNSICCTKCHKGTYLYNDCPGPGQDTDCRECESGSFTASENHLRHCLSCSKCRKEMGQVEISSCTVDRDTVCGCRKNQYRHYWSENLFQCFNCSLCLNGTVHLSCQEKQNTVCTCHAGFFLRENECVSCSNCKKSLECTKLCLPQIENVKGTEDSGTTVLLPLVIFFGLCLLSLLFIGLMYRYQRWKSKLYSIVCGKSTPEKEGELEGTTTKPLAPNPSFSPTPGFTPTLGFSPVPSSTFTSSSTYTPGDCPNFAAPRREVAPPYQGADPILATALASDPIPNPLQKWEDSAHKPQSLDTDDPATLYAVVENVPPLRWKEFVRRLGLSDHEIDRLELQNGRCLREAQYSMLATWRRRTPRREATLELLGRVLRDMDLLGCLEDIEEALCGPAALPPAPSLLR

[14] = Metabolic stability in mouse liver microsomes assessed as parent compound remaining after 10 mins; type: ADME, Microsome; settings: read-out: Stabilty
[15] = biological target: T2, Tumor necrosis factor receptor superfamily member 1A (Homo sapiens); assay: Binding affinity to TNFR1 (unknown origin) assessed as apparent molecular weight of protein at 25 uM by ultracentrifugation analysis (reference value: 27 kDa)
[16] = Permeability of the compound across apical to basolateral side of membrane in human Caco-2 cells; type: ADME, cell-based; settings: read-out: permeability
Cytochrome P450 2C9 = Cytochrome P450 2C9 (Homo sapiens, UniProt P11712); assay: Inhibition of recombinant CYP2C9 (unknown origin); type: ADME
[17] = Cmax in mouse at 2 mg/kg, po; type: ADME, organism-based; parameters: route oral, dose 2 mg/kg; settings: in vivo
[18] = biological target: T3, Tumor necrosis factor ligand superfamily member 6 (Homo sapiens, UniProt P48023); assay: Inhibition of FasL (unknown origin)
T3 sequence (P48023 whole entry): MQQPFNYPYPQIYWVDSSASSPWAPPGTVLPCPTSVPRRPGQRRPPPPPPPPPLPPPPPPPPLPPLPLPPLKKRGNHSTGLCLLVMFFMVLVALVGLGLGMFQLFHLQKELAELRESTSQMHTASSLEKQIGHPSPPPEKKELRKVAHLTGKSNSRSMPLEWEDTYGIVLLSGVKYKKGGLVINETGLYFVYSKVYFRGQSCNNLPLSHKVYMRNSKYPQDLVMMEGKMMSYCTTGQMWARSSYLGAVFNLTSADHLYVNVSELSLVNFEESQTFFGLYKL

Mus musculus [19] = assay: Antiarthritic activity against anticollagen antibody-induced arthritis BALB/c mouse model assessed as reduction in paw inflammation administered orally twice a day followed by LPS stimulation after 6 hrs measured until day 12; type: functional, organism-based; settings: dose 2-10 mg/kg, time 12.0 day
[20] = biological target: T2, Tumor necrosis factor receptor superfamily member 1A (Homo sapiens); assay: Binding affinity to TNFR1 (unknown origin) assessed as apparent molecular weight of protein at 25 uM in presence of human TNFalpha by ultracentrifugation analysis (reference value: 27 kDa)
[21] = biological target: Voltage-gated inwardly rectifying potassium channel KCNH2 (Homo sapiens, UniProt Q12809); assay: Inhibition of human ERG by patch clamp assay
Mus musculus [22] = assay: Antiarthritic activity against anticollagen antibody-induced arthritis BALB/c mouse model assessed as reduction in LPS-induced cells expressing CD3 receptor administered orally twice daily followed by LPS stimulation after 6 hrs measured on day 12 by RT-PCR analysis; type: functional, organism-based; settings: dose 2-10 mg/kg, time 12.0 day
[23] = Protein binding in mouse assessed as unbound fraction; type: ADME

Sequence of Cytochrome P450 2D6 (P10635 whole entry): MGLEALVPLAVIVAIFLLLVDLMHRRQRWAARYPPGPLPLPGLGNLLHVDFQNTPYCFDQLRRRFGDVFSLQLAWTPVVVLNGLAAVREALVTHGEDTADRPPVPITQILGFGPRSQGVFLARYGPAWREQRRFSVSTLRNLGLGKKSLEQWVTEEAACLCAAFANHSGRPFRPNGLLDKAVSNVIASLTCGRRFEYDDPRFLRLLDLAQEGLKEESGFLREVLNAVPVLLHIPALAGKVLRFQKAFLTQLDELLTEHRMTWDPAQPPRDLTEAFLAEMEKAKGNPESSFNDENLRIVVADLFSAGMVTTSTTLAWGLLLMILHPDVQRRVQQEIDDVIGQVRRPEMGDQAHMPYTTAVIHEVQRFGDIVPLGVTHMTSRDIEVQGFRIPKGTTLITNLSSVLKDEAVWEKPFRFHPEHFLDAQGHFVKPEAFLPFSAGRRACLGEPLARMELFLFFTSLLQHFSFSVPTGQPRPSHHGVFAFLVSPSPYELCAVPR
Sequence of Cytochrome P450 2C9 (P11712 whole entry): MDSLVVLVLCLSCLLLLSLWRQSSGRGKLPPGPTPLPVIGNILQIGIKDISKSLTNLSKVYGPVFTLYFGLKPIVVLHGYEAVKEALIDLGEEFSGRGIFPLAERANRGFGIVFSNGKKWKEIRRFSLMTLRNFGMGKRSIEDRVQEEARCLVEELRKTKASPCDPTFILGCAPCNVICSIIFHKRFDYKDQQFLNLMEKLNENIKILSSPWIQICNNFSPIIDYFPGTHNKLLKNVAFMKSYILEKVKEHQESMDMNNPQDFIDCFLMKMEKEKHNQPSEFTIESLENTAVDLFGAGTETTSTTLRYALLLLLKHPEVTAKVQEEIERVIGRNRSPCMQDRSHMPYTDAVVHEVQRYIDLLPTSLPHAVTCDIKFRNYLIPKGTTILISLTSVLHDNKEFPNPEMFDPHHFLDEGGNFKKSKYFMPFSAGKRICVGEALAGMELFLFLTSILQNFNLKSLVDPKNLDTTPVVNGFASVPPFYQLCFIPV
Sequence of Voltage-gated inwardly rectifying potassium channel KCNH2 (Q12809 whole entry): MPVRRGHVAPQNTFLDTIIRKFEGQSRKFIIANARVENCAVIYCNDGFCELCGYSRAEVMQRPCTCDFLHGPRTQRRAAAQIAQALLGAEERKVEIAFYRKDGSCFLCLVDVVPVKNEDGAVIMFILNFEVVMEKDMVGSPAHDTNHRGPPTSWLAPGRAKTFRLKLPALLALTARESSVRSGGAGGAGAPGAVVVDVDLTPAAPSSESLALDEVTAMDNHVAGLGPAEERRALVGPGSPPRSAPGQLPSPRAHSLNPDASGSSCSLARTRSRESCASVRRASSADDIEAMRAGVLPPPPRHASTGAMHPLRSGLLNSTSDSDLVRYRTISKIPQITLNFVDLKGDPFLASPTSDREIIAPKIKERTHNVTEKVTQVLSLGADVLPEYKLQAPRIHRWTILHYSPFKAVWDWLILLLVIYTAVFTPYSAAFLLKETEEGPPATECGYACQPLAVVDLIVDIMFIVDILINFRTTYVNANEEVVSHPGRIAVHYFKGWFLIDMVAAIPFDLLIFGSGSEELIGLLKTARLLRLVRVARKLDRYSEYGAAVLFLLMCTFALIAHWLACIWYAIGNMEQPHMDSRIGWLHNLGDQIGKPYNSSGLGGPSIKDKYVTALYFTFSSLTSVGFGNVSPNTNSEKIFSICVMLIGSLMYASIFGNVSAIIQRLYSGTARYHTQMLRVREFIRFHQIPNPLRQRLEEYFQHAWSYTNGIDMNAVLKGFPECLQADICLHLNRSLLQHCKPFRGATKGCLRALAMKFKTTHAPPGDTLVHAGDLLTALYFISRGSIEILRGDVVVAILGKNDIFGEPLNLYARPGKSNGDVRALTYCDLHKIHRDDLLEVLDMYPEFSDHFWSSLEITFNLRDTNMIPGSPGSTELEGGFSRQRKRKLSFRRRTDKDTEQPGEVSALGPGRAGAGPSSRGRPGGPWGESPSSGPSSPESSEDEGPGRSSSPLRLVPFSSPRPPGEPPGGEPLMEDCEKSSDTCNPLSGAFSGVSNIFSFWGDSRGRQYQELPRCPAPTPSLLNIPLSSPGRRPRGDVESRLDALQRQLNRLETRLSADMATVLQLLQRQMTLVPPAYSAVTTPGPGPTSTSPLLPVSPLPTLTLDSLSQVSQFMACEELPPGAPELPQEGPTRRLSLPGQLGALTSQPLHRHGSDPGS

Structure (SMILES): Cc1nc2cc(F)c(-c3cnc(C(C)(C)O)nc3)nc2c(N[C@H](C)c2cc(C#N)ccc2F)c1Cl
- concentration at 3 h [1]: 1860 nM
- Activity (Mus musculus [2]): Dose-dependent effect
- Fu [3]: 0.4%
- Activity (Mus musculus [4]): Dose-dependent effect
- Activity (Mus musculus [5]): Active
- solubility [6]: 1 µg/mL (≈ 2.02 µM)
- Activity (Mus musculus [7]): Dose-dependent effect
- Vd [8]: 3.2 L/kg
- IC50 (CD40 ligand): > 10 µM
- Ratio [9]: 1
- concentration at 288 h [10]: 1130 nM
- Activity (Mus musculus [11]): Dose-dependent effect
- IC50 (Cytochrome P450 2D6): > 20 µM
- Activity (Mus musculus [12]): Dose-dependent effect
- Activity index [13]: 2.2
- remaining at 10 min [14]: 86%
- Activity [15]: 27 kDa
- Papp A→B [16]: 20 ×10⁻⁶ cm/s
- IC50 (Cytochrome P450 2C9): 2 µM
- Cmax [17]: 470 nM
- IC50 [18]: > 10 µM
- Activity (Mus musculus [19]): Dose-dependent effect
- Activity [20]: 28 kDa
- IC50 [21]: 5.6 µM
- Activity (Mus musculus [22]): Dose-dependent effect
- Fu [23]: 0.6%
